# Data: ChEMBL document CHEMBL6074642, “Natural and Bioinspired Lipidic Alkynylcarbinols as Leishmanicidal, Antiplasmodial, Trypanocidal, Fungicidal, Antibacterial, and Antimycobacterial Agents” (J Nat Prod, 2024)
# Tests used:
# [1] = tested on: Colletotrichum gloeosporioides; assay: Antifungal activity against Colletotrichum gloeosporioides; format: functional, organism-based
# Bipolaris sorokiniana = assay: Antifungal activity against Cochliobolus sativus; format: functional, organism-based
# Alternaria kikuchiana = assay: Antifungal activity against Alternaria kikuchiana; format: functional, organism-based
# [2] = tested on: Mycobacterium tuberculosis; assay: Antimycobacterial activity against Mycobacterium tuberculosis Erdman assessed as inhibition of bacterial growth by MABA assay; format: functional
# [3] = tested on: Mycobacterium tuberculosis; assay: Antimycobacterial activity against Mycobacterium tuberculosis H37Rv assessed as inhibition of bacterial growth by MABA assay; format: functional
# [4] = tested on: Mycobacterium tuberculosis; assay: Antimycobacterial activity against Mycobacterium tuberculosis H37Ra; format: functional, organism-based
# Leishmania mexicana [5] = assay: Antileishmanial activity against Leishmania mexicana promastigotes; format: functional, organism-based
# Leishmania mexicana [6] = assay: Antileishmanial activity against Leishmania mexicana amastigotes; format: functional, organism-based
# Leishmania donovani = assay: Antileishmanial activity against Leishmania donovani amastigotes infected in J774 macrophage assessed as inhibition of parasite growth incubated for 48 hrs by luciferase assay; format: functional, organism-based; details: J774, 48 h
# Plasmodium falciparum = assay: Antiplasmodial activity against Plasmodium falciparum assessed as parasite growth inhibition; format: functional, organism-based
# Phytophthora capsici = assay: Antifungal activity against Phytophthora capsici; format: functional, organism-based
# [7] = tested on: Mycobacterium tuberculosis; assay: Antimycobacterial activity against Mycobacterium tuberculosis H37Rv; format: functional
# [8] = tested on: Mycobacterium tuberculosis; assay: Antimycobacterial activity against Mycobacterium tuberculosis Erdman; format: functional
# Candida albicans = assay: Antifungal activity against Candida albicans ATCC 10231 assessed as fungal growth inhibition; format: functional
# [9] = tested on: Mycobacterium intracellulare; assay: Antibacterial activity against Mycobacterium intracellulare; format: functional, organism-based
# Pseudomonas aeruginosa = assay: Antibacterial activity against Pseudomonas aeruginosa assessed as reduction in bacterial growth incubated for 24 hrs by broth microdilution method; format: functional, organism-based
# Leishmania amazonensis = assay: Antileishmanial activity against leishmania amazonensis promastigotes MHOM/BR/77/LTB0016 assessed as assessed as parasite growth inhibition incubated for 72 hrs by Alamar Blue assay; format: functional, organism-based; details: MHOM/BR/77/LTB0016, 72 h
# [10] = tested on: Mycobacterium tuberculosis; assay: Antimycobacterial activity against Mycobacterium tuberculosis Erdman ATCC 35801; format: functional
# Staphylococcus aureus [11] = assay: Antimicrobial activity against methicillin-sensitive Staphylococcus aureus K147 assessed as reduction in microbial growth; format: functional
# Bacillus subtilis [12] = assay: Antibacterial activity against Bacillus subtilis assessed as reduction in microbial growth; format: functional
# Staphylococcus aureus [13] = assay: Antibacterial activity against Staphylococcus aureus SAP0017 assessed as reduction in bacterial growth; format: functional
# Escherichia coli = assay: Antibacterial activity against Escherichia coli DC2 assessed as reduction in bacterial growth; format: functional
# Trypanosoma brucei = assay: Antitrypanosomal activity against Trypanosoma brucei assessed as inhibition of parasite growth incubated for 72 hrs by resazurin reagent fluorimetric analysis; format: functional, organism-based
# Bacillus subtilis [14] = assay: Antibacterial activity against Bacillus subtilis PY79 assessed as reduction in bacterial growth; format: functional, organism-based
# [15] = tested on: Mycolicibacterium smegmatis; assay: Antimycobacterial activity against Mycobacterium smegmatis ATCC 14468; format: functional
# Mycolicibacterium aurum = assay: Antimycobacterial activity against Mycobacterium aurum; format: functional
# [16] = tested on: Mycolicibacterium fortuitum; assay: Antimycobacterial activity against Mycobacterium fortuitum ATCC 6841 assessed as bacterial growth inhibition incubated for 72 hrs by resazurin dye based broth microdilution method; format: functional
# [17] = tested on: Mycobacteroides abscessus; assay: Antimycobacterial activity against Mycobacterium abscessus ATCC 19977; format: functional
# Mycolicibacterium phlei = assay: Antimycobacterial activity against Mycobacterium phlei ATCC 11758; format: functional
# [18] = tested on: Mycobacterium tuberculosis; assay: Antimycobacterial activity against Mycobacterium tuberculosis H37Ra ATCC 25177 assessed as reduction in bacterial growth after 7 days by resazurin microtiter assay; format: functional; details: H37Ra ATCC 25177, 168 h, time 7 day
# Monilinia fructigena = assay: Antifungal activity against Monilinia fructigena; format: functional, organism-based
compound,measurement,setting,value
C=C[C@H](O)C#CC#CC/C=C/CCCCCCCC,EC50,[1],46 µg/mL
same,EC50,Bipolaris sorokiniana,9 µg/mL
same,EC50,Alternaria kikuchiana,41 µg/mL
C=CC(O)C#CC#CC(O)C1OC1CCCCCCC (centres undefined),MIC,[2],> 60 µg/mL
same,MIC,[3],> 60 µg/mL
CCCC/C=C/C#CC#CC(O)CCCCCCC(=O)O (centres undefined),IC50,[4],25 µg/mL
C=CCCCCC/C=C\CC#CC#C[C@@H](O)C=C,IC50,Leishmania mexicana [5],0.28 µg/mL
same,IC50,Leishmania mexicana [6],0.18 µg/mL
C=C[C@@H](C#CC#C[C@@H](O)CCCCCCCCC)OC(C)=O,IC50,Leishmania donovani,1300 nM
same,IC50,Plasmodium falciparum,0.27 µg/mL
C=C[C@@H](O)C#CC#C[C@H](O)c1cccs1,EC50,Phytophthora capsici,31 µg/mL
C=CC(O)C#CC#CC(O)/C=C\CCCCCCCCOC(C)=O (centres undefined),MIC,[7],25 µg/mL
same,MIC,[8],1.4 µg/mL
CCCCCCC/C=C\[C@H](O)C#CC#C[C@@H](O)CC [OPLOPANDIOL],MIC,Candida albicans,12 µg/mL
CCCCCCCCCCCCCCCC[C@@H](O)C#CC#CCO,IC50,[9],7700 nM
same,IC50,Pseudomonas aeruginosa,1900 nM
C=C[C@@H](O)C#CC#C/C=C/[C@H](O)CCCCCCCC,EC50,Bipolaris sorokiniana,37 µg/mL
C=CC(O)C#CC#C/C=C/C(O)CCCCCCC (centres undefined),IC50,Leishmania amazonensis,5800 nM
C=C[C@H](O)C#CC#C[C@@H](O)/C=C\CCCCCCC,MIC,[7],27 µg/mL
same,MIC,[10],6.2 µg/mL
same,MIC,Staphylococcus aureus [11],12 µg/mL
same,MIC,[8],6 µg/mL
same,MIC,Bacillus subtilis [12],12 µg/mL
same,MIC,Staphylococcus aureus [13],25 µg/mL
same,MIC,Escherichia coli,2.5 µg/mL
C=CC(C#CC#CC(O)CCCCCCCCC)OC(C)=O (centres undefined),IC50,Trypanosoma brucei,460 nM
C#CC(O)/C=C/C(O)CCCC(O)CC#CC(O)C#CCCCC(O)/C=C/CCCCCC(=O)CCCCCCCCCCCCCC(O)C(O)C(O)C#CC(=O)O (centres undefined),IC50,Bacillus subtilis [14],12 µg/mL
C=C[C@H](O)C#CC#CC(O)/C=C\CCCCCCC (some centres undefined),MIC,[15],4 µg/mL
same,MIC,Mycolicibacterium aurum,4 µg/mL
same,MIC,[16],4 µg/mL
same,MIC,[17],2 µg/mL
same,MIC,Mycolicibacterium phlei,2 µg/mL
C=C[C@@H](O)C#CC#CC/C=C/CCCCCCCC,EC50,Alternaria kikuchiana,51 µg/mL
C#CC(O)/C=C/C(O)CCCC(O)C(O)C#CC(O)C#CCCCCC(=O)CCCCC/C=C/C(O)CCCCCCCCCCCCC(O)C(O)C(O)C#CC(=O)O (centres undefined),IC50,Bacillus subtilis [14],48 µg/mL
CCCCCCCCCCCCC1CC1CCCC(O)C#CC#CCO (centres undefined),IC50,[9],14000 nM
same,IC50,Pseudomonas aeruginosa,1800 nM
CCCC/C=C/C#CC#CCCCCCCCC(=O)O [EXOCARPIC ACID],MIC,[18],20 µg/mL
C=CC(O)C#CC#CC(O)/C=C\CCCCCCC (centres undefined),IC50,Leishmania amazonensis,5700 nM
C=CC(O)C#CC#CC(O)c1cccs1 (centres undefined),EC50,Phytophthora capsici,2.1 µg/mL
same,EC50,Monilinia fructigena,4 µg/mL
C#CC(O)/C=C/C(O)CCCC(O)CC#CC(O)C#CC(O)CCCC(=O)CCCCC/C=C/C(O)CCCCCCCCCCCCCC(O)C(O)C#CC(=O)O (centres undefined),IC50,Bacillus subtilis [14],12 µg/mL
C#CC(O)/C=C/C(O)CCCC(O)CC#CC(O)C#CCCCCC(=O)CCCCC/C=C/C(O)CCCCCCCCCCCCC(O)C(O)C(O)C#CC(=O)O (centres undefined),IC50,Bacillus subtilis [14],12 µg/mL
C#CC(O)/C=C/C(O)CCCC(O)C(O)C#CC(O)C#CCCCCC(=O)CCCCC/C=C/C(O)CCCCCCCCCCCCCC(O)C(O)C#CC(=O)O (centres undefined),IC50,Bacillus subtilis [14],25 µg/mL
C=C[C@H](O)C#CC#C[C@@H](CCCCCCCCC)NCCCC,IC50,Leishmania donovani,3 nM
